# pIC50: −log10 of the molar value. Like-named read-outs stand apart in the source and are kept apart here.
# What was measured:
# [1] = Microsomal stability and clearance; assay type: in vitro ADME, human, mouse; details: microsomal stability; Table 4
# Protocol: Measure of Microsomal Stability and Clearance with Compounds of this Invention
# Verapamil (positive control) and compound solution, both at 10 mM, are diluted 200 fold. There are six reaction time points in the experiment (0 min, 5 min, 15 min, 30 min, 45 min, and 60 min), and triplicate samples are used for each data point. There are controls for time zero and negative drug effect (negative control containing no incubation buffer or enzyme). For each compound or Verapamil sample, there are also samples treated with compound or Verapamil at concentrations of no positive effect (at 5 μM and 2.5 μM, respectively). Diluted positive control (Verapamil) and compound solution are mixed with pre-heated (37° C.) incubation buffer (100 mM potassium phosphate buffer, NADPH regeneration system solution B, NAPDH regeneration system solution A, HLM/MLM in Milli-Q ultrapure water), and incubated at 37° C. for 10 min. 100 μL of stop solution mixture is (containing 80% acetonitrile, and 20% DMSO, both of HPLC grade) is dispensed into wells of separate sampling plates into each well. At each reaction time point (0 min, 5 min, 15 min, 30 min, 45 min, and 60 min) 50 μL of reaction solution is taken from wells in the incubation plate and transferred to its corresponding well in the sampling plate, and mixed by pipetting up and down with stop solution already added there. The sampling plates are then covered, placed on ice, and centrifuged at 2,000 rpm at 4° C. for 15 min. 100 μL supernatant is then taken from each well to LC/MS analysis (or stored at 4° C. in refrigerator until analysis).
# Data analysis: % remaining of compound is calculated by area of each time point with respect to time 0% remaining against time (min) curve is plotted using the first-phase exponential decay equation y=y0e(−kT) on the Prism 4.0. Results are shown in the format of TOP, K, t1/2 (min), R2 value and % remaining against time curve.
# [2] = test system: HDACs; assay: In vitro HDACi assay (BIOMOL fluorescent-based HDAC activity assay); assay type: biochemical; details: for IC50: Table 3, read-out: IC50 (nM) HDACs; for pIC50: Table 4, read-out: HDAC enzyme inhibition activity IC50
# Protocol: (§1) In Vitro HDACi Assay for Determination of IC50 Values
# (§2) The assay has been carried out in white 96 well formats according to the BIOMOL's method. […] The reaction mixture was incubated at room temperature for 2 hours. Flur de lys Developer was added and the reaction was incubated for 10 min. Briefly, deacetylation of the substrate sensitizes to the developer, which then generates a fluorophore. The fluorophore is excited with 360 nm light and the emitted light (460 nm) is detected on a fluorometric plate reader (Molecular Device Ultra Microplate detection system, MD Group Ltd).
# (§3) The analytical software, Prism 4.0 (GraphPad Software Inc) has been used to generate IC50 from a series of data.
# [3] = test system: MDAMB435; assay: Cell-based proliferation assay (SRB), MDAMB435; details: Homo sapiens
# Protocol: (§4) Cell-Based Proliferation Assay for Determination of GI50 Values
# (§5) A rapid multiwell plate assay using Sulforhodamine B (SRB) protein stain was adopted to evaluate the growth inhibitory effects of the compounds of the present invention. The screening panel of cancer cell lines includes Colo205 and HCT116 colon cancer cells, MDA-MB231 and MDA-MB435 chest cancer cells, A549 lung cancer cells, and Chinese hamster ovary cell line CHO, which were obtained from ATCC.
# (§6) The cell line Colo205 is grown in RPMI 1640 medium containing 2 mM L-glutamine, 5% fetal bovine serum, and 1.0 mM sodium pyruvic acid. Cell lines A549 and MDA-MB231 are grown in RPMI 1640 medium containing 2 mM L-glutamine and 5% fetal bovine serum. The cell line MDA-MB435 is grown in DMEM medium containing 2 mM L-glutamine and 5% fetal bovine serum. The cell lines HCT 116 is grown in IMEM medium containing 2 mM L-glutamine and 5% fetal bovine serum. The CHO cell line, used as a normal control on toxicity, is grown in a special medium for cell line. For a typical screening experiment, A549 and Colo205 cells are inoculated into 96-well microtiter plates, with 100 μL per well, and 2000 and 5000 cells per well respectively for either cell line. MDA-MB435, HCT116, MDA-MB231 and CHO cells are also inoculated into 96-well microtiter plates, with 6000 cells per well. After cell inoculation, the microtiter plates are incubated at 37° C., 5% CO2, and 100% relative humidity for 24 hr in order to make cells adhere to well wall.
# (§7) After 24 h incubation or time zero for drug addition, with each cell line 50 μl of cold 50% (w/v) TCA is added to wells used for control to fix cells in situ. Also at time zero, cells in other wells are treated with 100 μl of compound of different concentrations for 24 hr, 48 hr, and 72 hr respectively, with varying final compound concentration (0.1 μM, 1 μM, 5 μM 10 μM). For each treatment duration at each compound concentration, there are triplicate wells, as well as an array of control wells including a blank control well (cell culture medium only, no cells), a no-compound control well (adding same volume of cell culture medium but no compound), a positive control well (treated with Suberoylanilide hydroxamic acid (SAHA)), and normal cell well control (CHO cells). Following the addition of compounds, cell plates are incubated for 24 h, 48 h or 72 h per treatment group at 37° C., 5% CO2, and 100% relative humidity. The Treatment is then terminated by addition of cold TCA and incubation of 1 hr at 4° C. The supernatant is discarded, and all wells are washed five times with de-ioned water and air dried. Then each well is added with 100 μl sulforhodamine B (SRB) solution (0.4% (w/v) made in 1% acetic acid) and cell plates are incubated for 20-30 minutes at room temperature. After staining, unbound dye is removed by washing five times with 1% acetic acid and the plates are air dried. Bound stain is subsequently solubilized with 10 mM (200 μL) Tris base with the help of 5 min platform vibration or pipetting up and down, and the absorbance is read on an automated plate reader (M5 detection system, MD Group Ltd.) at a wavelength of 565 nm (calibrated zero reading of blank control at wavelength of 690 nm). The analytical software, XL-fit has been used to generate GI50 from a series of data thus obtained.
# [4] = target: HDAC6 (Homo sapiens (Human), UniProt Q9UBN7); assay: In vitro HDACi assay, HDAC6; assay type: biochemical; details: Table 3; read-out: IC50 (nM) HDAC6
# Sequence of HDAC6 (Q9UBN7 whole entry, species assumed): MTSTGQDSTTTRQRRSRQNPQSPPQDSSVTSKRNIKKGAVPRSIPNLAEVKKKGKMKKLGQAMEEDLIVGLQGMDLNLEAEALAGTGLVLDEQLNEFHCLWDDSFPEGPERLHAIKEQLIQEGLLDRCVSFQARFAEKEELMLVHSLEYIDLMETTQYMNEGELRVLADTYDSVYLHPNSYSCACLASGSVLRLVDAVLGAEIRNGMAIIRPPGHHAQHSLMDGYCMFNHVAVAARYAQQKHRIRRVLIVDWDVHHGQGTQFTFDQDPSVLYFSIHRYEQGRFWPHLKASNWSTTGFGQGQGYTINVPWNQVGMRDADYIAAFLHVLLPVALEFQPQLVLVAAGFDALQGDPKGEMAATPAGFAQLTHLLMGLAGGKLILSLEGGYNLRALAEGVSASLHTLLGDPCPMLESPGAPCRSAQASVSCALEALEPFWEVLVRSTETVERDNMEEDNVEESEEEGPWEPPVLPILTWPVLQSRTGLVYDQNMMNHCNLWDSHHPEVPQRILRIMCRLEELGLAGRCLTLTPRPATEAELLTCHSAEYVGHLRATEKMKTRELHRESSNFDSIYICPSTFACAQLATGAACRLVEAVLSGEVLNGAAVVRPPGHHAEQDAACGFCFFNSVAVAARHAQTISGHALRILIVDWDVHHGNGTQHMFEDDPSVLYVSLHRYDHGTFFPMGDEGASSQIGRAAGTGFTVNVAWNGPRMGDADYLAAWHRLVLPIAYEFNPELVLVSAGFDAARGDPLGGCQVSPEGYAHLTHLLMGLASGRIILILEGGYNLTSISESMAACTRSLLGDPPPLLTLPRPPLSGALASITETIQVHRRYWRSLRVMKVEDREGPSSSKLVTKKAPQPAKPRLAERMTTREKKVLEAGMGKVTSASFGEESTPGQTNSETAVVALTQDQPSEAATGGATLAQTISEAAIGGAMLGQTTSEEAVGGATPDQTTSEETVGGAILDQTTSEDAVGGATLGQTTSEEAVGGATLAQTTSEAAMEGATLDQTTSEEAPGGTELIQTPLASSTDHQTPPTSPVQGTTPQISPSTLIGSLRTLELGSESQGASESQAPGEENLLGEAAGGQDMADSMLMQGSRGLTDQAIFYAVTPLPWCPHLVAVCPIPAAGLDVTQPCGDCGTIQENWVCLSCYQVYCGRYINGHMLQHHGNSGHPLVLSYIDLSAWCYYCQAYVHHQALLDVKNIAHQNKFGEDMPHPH
# Protocol: as §1, §2, §3
# [5] = test system: Colo205; assay: Cell-based proliferation assay (SRB), Colo205; details: Homo sapiens
# Protocol: as §4, §5, §6, §7
# [6] = test system: HL-60; assay: Cell-based proliferation assay (SRB), HL-60; details: Homo sapiens
# [7] = test system: BXPC-3; assay: Cell-based proliferation assay (SRB), BXPC-3; details: Homo sapiens
# [8] = test system: SKOV-3; assay: Cell-based proliferation assay (SRB), SKOV-3; details: Homo sapiens
# Protocol: as §4, §5, §6, §7
# [9] = test system: MDAMB231; assay: Cell-based proliferation assay (SRB), MDAMB231; details: Homo sapiens, MDA-MB-231; Table 4
# Protocol: as §4, §5, §6, §7
# [10] = test system: HCT116; assay: Cell-based proliferation assay (SRB), HCT116; details: Homo sapiens
# Protocol: as §4, §5, §6, §7
SMILES,half-life [1],IC50 [2],pIC50 [2],"GI50 ([3]; MDA-MB-435, Table 4)",IC50 [4],"GI50 ([5]; COLO 205, Table 4)","GI50 ([6]; HL-60, Table 4)","GI50 ([7]; BXPC-3, Table 4)","GI50 ([8]; SK-OV-3, Table 4)",GI50 [9],"GI50 ([10]; HCT-116, Table 4)","GI50 ([3]; MDA-MB-435, Table 3)","GI50 ([5]; COLO 205, Table 3)","GI50 ([6]; HL-60, Table 3)","GI50 ([7]; BXPC-3, Table 3)","GI50 ([8]; SK-OV-3, Table 3)","GI50 ([10]; HCT-116, Table 3)"
CCN(CC)CCSc1ccc(/C=C/C(=O)NO)cc1NC(C)=O [Example 4],1.6 h,> 100 nM,4.07,3.56 µM,357 nM,2 µM,1.63 µM,3.56 µM,0.7 µM,4.63 µM,2.02 µM,–,–,–,–,–,–
"CCN(CC)CCSc1ccc(/C=C/C(=O)NO)cc1N [Example 9, 3-(3-amino-4-(2-(diethylamino)ethylthio)phenyl)-N-hydroxy-acrylamide]",–,> 100 nM,–,–,295 nM,–,–,–,–,–,–,–,–,–,–,–,–
"CCN(CC)CCSc1ccc(/C=C/C(=O)NO)cc1NC [Example 8, 3-(4-(2-(diethylamino)ethylthio)-3-(methylamino)phenyl)-N-hydroxy-acrylamide]",–,95 nM,–,–,800 nM,–,–,–,–,–,–,16.6 µM,10.6 µM,15.2 µM,16 µM,15.6 µM,13.9 µM
"CCCNc1cc(/C=C/C(=O)NO)ccc1SCCN(CC)CC [Example 3, 3-(4-(2-(diethylamino)ethylthio)-3-(propylamino)phenyl)-N-hydroxy-acrylamide]",1.8 h,19 nM,4.72,2.6 µM,653 nM,2.95 µM,1.98 µM,–,2.58 µM,2.98 µM,3.65 µM,2.6 µM,2.95 µM,1.98 µM,14.5 µM,2.58 µM,3.65 µM
"CCN(CC)CCSc1ccc(/C=C/C(=O)NO)cc1NCc1ccccc1 [Example 6, 3-(3-(benzylamino)-4-(2-(di-ethylamino)ethylthio)phenyl)-N-hydroxy-acrylamide]",2.5 h,35 nM,4.02,–,275 nM,–,–,–,–,4.39 µM,–,1.95 µM,2.28 µM,1.32 µM,4.33 µM,2.81 µM,0.78 µM
"CCN(CC)CCSc1ccc(/C=C/C(=O)NO)cc1[N+](=O)[O-] [Example 5, 3-(4-(2-(diethylamino)ethylthio)-3-nitrophenyl)-N-hydroxy-acrylamide]",2.2 h,86 nM,4.46,–,313 nM,–,–,–,–,1.92 µM,–,3.56 µM,2 µM,1.63 µM,95.4 µM,0.7 µM,2.02 µM
"CCN(CC)CCSc1ccc(/C=C/C(=O)NO)cc1NCCCc1ccccc1 [Example 1, 3-(4-(2-(diethylamino)ethylthio)-3-(3-phenylpropylamino)phenyl)-N-hydroxy-acrylamide]",1.4 h,98 nM,4.01,3.33 µM,627 nM,5.68 µM,3.52 µM,–,4.57 µM,3.49 µM,0.78 µM,3.33 µM,5.68 µM,3.52 µM,15 µM,4.57 µM,0.78 µM
"C=CCNc1cc(/C=C/C(=O)NO)ccc1SCCN(CC)CC [Example 7, 3-(3-(allylamino)-4-(2-(di-ethylamino)ethylthio)phenyl)-N-hydroxy-acrylamide]",–,> 100 nM,–,–,350 nM,–,–,–,–,–,–,–,–,–,–,–,–

# Next, values leading:
half-life [1],IC50 [2],pIC50 [2],"GI50 ([3]; MDA-MB-435, Table 4)",IC50 [4],"GI50 ([5]; COLO 205, Table 4)","GI50 ([6]; HL-60, Table 4)","GI50 ([7]; BXPC-3, Table 4)","GI50 ([8]; SK-OV-3, Table 4)",GI50 [9],"GI50 ([10]; HCT-116, Table 4)","GI50 ([3]; MDA-MB-435, Table 3)","GI50 ([5]; COLO 205, Table 3)","GI50 ([6]; HL-60, Table 3)","GI50 ([7]; BXPC-3, Table 3)","GI50 ([8]; SK-OV-3, Table 3)","GI50 ([10]; HCT-116, Table 3)",SMILES
–,> 100 nM,–,–,310 nM,–,–,–,–,–,–,–,–,–,–,–,–,"C=CCCCNc1cc(/C=C/C(=O)NO)ccc1SCCN(CC)CC [Example 12, 3-(4-(2-(diethylamino)ethylthio)-3-(pent-4-enylamino)phenyl)-N-hydroxy-acrylamide]"
–,55 nM,–,–,200 nM,–,–,–,–,–,–,10.2 µM,17.6 µM,15.7 µM,19.9 µM,16.9 µM,18.2 µM,"CCCCCNC(=O)Nc1cc(/C=C/C(=O)NO)ccc1SCCN(CC)CC [Example 10, 3-(4-(2-(diethylamino)ethylthio)-3-(3-pentylureido)phenyl)-N-hydroxy-acrylamide]"
–,–,–,–,–,–,–,–,–,–,–,5.96 µM,5.63 µM,4.31 µM,97.7 µM,3.82 µM,2.56 µM,"CCN(CC)CCSc1ccc(/C=C/C(=O)NO)cc1NC(=O)C(Cl)Cl [Example 13, 3-(3-(2,2-dichloroacetamido)-4-(2-(diethylamino)ethylthio)phenyl)-N-hydroxy-acrylamide]"

# — patent publication US8921424B2, “Histone deacetylase inhibitors, process for preparation and uses thereof” (Zhejiang Hisun Pharmaceutical Co. Ltd., priority 2007, dated 2014)
